Experiments:
human volunteers = assay: Blood clotting time studies in human volunteers; format: in vivo; conditions: human volunteers
Description: Several blood clotting time studies were performed on a limited number of human volunteers with Acetylsalicylic Acid-L-Threonine Ester. […] This plot was derived from the data in Table 29. The two Acetylsalicylic Acid-L-Threonine Ester blocks shown above correspond to two separate volunteers who took the test drug over a period of 5 days. The third volunteer took Bayer Aspirin for 5 days. As per FIG. 2, increase in clotting time occurred on the very first day of drug intake, and remained higher than Bayer ASA during the subsequent administrations.

[1] = tested on: albino rats (Wistar strain); assay: 28-day repeated dose oral toxicity test of Acetylsalicylic Acid-L-Threonine Ester; conditions: 100 mg/kg as aspirin, oral gavage daily 28 days;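 also: one dose level only, compared with a vehicle control group, with doses stated as Aspirin molar equivalents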
Description: (§1) The study was conducted at one dose level only along with a vehicle control group as per the recommendation of the Sponsor. The test doses are expressed as Aspirin molar equivalents.

women = conditions: daily dose of 60 mg, more than 9000 women; cited from earlier work
[2] = tested on: albino rats (Wistar strain); conditions: rat, in vivo
Description: as §1

albino rats = assay: Blood clotting time in albino rats, one hour after dosing; format: in vivo, rat; conditions: one hour after dosing
Description: The data on the mean clotting time (MCT) of the animals of low, intermediate and high dose groups of different formulations, vehicle control and positive control groups estimated one hour after dosing were presented below (Table 19):
Aspirin served as positive control. The study was conducted at three dose levels with the new formulations and positive control along with a vehicle control group.
The doses for the main study were selected based on the dose range finding experiments with acetylsalicylic acid. All the doses were expressed as aspirin molar equivalents. The doses used are presented below.

Male albino rats = assay: Blood clotting time in albino rats, 2 hours after dosing; format: in vivo, rat; conditions: 20 mg/kg as aspirin, 2 hours (±10 minutes) after dosing
Description: Aspirin served as positive control. Male albino rats were exposed to aspirin and to 3 new formulations of amino acid derivatives of aspirin derivatives at one dose level of 20 mg/kg body weight. […]. The doses were expressed as aspirin molar equivalents.
The efficacy in terms of time required for the blood clotting time at the dose level of 20 mg/kg body weight for different formulations of amino acid derivatives of aspirin and aspirin (positive control) are presented below:
The data on the mean clotting time (MCT) of the animals, estimated 2 hours (±10 minutes) after dosing, at the dose level of 20 mg/kg body weight for the formulations of aspirin derivatives, vehicle control and positive control are presented below

[3] = tested on: fasted male albino rats (Wistar strain); assay: Gastric mucosa irritation of acetylsalicylic acid esters; format: in vivo, rat; conditions: single dose by gavage, 3 hours, 5 animals
Description: Aspirin served as a reference control. […] All the doses were expressed as aspirin molar equivalents. The doses used as well as the molar equivalents are presented below. The rats were fasted for a period of 18 to 22 hours before dosing. The test item was administered as a single dose by gavage. Three hours after drug administration, the animals were killed humanely by CO2 gas inhalation. The stomach was dissected out and observed for • the quantity of mucous exudate, • degree of hyperemia and thickening of stomach wall, • hemorrhagic spots (focal or diffuse), nature of hemorrhages (petechial or ecchymotic) along with the size and • perforations

rats = assay: Clotting time in rats, different date, time intervals and doses (Table 24); format: in vivo, rat
From the text: The following additional data were obtained, when the same drugs were compared in rats on a different date with different time intervals and doses: […]

[4] = Plasma aspirin and salicylic acid in human volunteers; format: in vivo
From the text: This is shown in FIG. 12 which depicts the concentration of salicyclic Acid in human plasma with respect to four volunteers who took Acetylsalicyclic Acid-L-Threonine Ester and two volunteers who took Aspirin.

SMILES: CC(=O)Oc1ccccc1C(=O)O [acetylsalicylic acid, reference compound]
- AVERAGE CLOTTING TIME (human volunteers; 81 mg): 4.5 min
- AVERAGE CLOTTING TIME (human volunteers; 325 mg): 5.7 min
- survival [1]: survived through the dosing period of 28 days
- reduced the risk of pre-eclampsia by (women): 13%
- Alkaline Phosphatase, Significance [P < 0.05] [2]: Increase (Female)
- All Blood Parameters, Significance [P < 0.05] [2]: None
- Blood Urea, Significance [P < 0.05] [2]: Decrease (Female)
- Food intake [2]: normal and comparable to the animals of vehicle control group
- Kidney (Abs) organ weight, Significance[P < 0.05] [2]: Decrease (Male)
- Kidney (Rel) organ weight, Significance[P < 0.05] [2]: Increase (Male)
- SGPT and Cholesterol, Significance [P < 0.05] [2]: Increase (Male)
- Sodium, Significance [P < 0.05] [2]: Increase (Female)
- Spleen (Abs) organ weight, Significance[P < 0.05] [2]: Decrease (Female)
- Spleen (Rel) organ weight, Significance[P < 0.05] [2]: Increase (Female)
- histological sections of organs [2]: mild fatty changes in the cardiac muscle fibers of heart and mild catarrhal changes of gastric mucosa
- Mean Clotting Time (±S.D.), Low Dose (albino rats; 1.0 mg/kg as aspirin): 6.2 ± 1.40 min
- Mean Clotting Time (±S.D.), Intermediate Dose (albino rats; 4.0 mg/kg as aspirin): 8.1 ± 1.97 min
- Mean Clotting Time (±S.D.), High Dose (albino rats; 10.0 mg/kg as aspirin): 9.8 ± 1.32 min
- statistical analysis of mean clotting time vs vehicle control (albino rats): significant improvement at 5% significance level in the efficacy for the intermediate and high dose
- Mean Clotting Time (± S.D.) (Male albino rats): 5.4 ± 1.17 min
- Observation, gastric mucosal irritation ([3]; 100.0 mg/kg as acetylsalicylic acid, listed as aspirin): failed to cause any evidence of gastric mucosal irritation
- Observation, gastric mucosal irritation ([3]; 200.0 mg/kg as acetylsalicylic acid, listed as aspirin (acetylsalicylic acid)): caused irritation of the gastric mucosal in all the fasted male albino rats
- Clotting Time (rats; 10 mg/kg 1 hr): 9.8 min
- Clotting Time (rats; 10 mg/kg 24 hr): 4.4 min
- Clotting Time (rats; 20 mg/kg 2 hr): 5.4 min
- Salicylic Acid in human plasma (profile, words) [4]: Rapid influx and efflux of Salicylic Acid
- Aspirin in blood / plasma ([4]; 325 mg dose, oral): showed Plasma levels of Aspirin
